Experimental findings from PubChem BioAssay (NCI) are described below.

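The compound was tested at five concentrations on cells cultured in 96-well plates, with a 48-hour exposure period. GI50: concentration for 50% inhibition of growth. The concentration for full growth arrest is given as TGI.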

Among the test systems are HOP-92 NSCLC; IGROV1 ovarian; OVCAR-5 ovarian; OVCAR-8 ovarian; RXF 393 renal; SK-MEL-2 melanoma; SNB-19 CNS; DU-145 prostate; HS 578T breast; NCI/ADR-RES ovarian.
Common to all, as to assay: NCI tumour cell line growth inhibition, 48 h

`CC(C)N1CC2CC(CN(C(=O)c3ccc(Cl)cc3)C2)C1`: the TGI in the assay with HOP-92 NSCLC, in the assay with IGROV1 ovarian, with OVCAR-5 ovarian, with OVCAR-8 ovarian, with RXF 393 renal and with SK-MEL-2 melanoma was > 100 µM each time. Also, in the assay with SNB-19 CNS, the TGI is > 100 µM.
For the compound `OC1OCC(COc2cc(Cl)c(Cl)cc2Cl)OC1O` (stereo not given), the TGI with HOP-92 NSCLC is 94.3 µM; with IGROV1 ovarian, > 100 µM; in the assay with OVCAR-5 ovarian it was > 100 µM; in the assay with OVCAR-8 ovarian it was > 100 µM; in the assay with SNB-19 CNS, > 100 µM.
In the case of `Cc1cc2nc3c(C#N)c(C)c(CCCl)c(Cl)n3c2cc1C`, the TGI in the assay on DU-145 prostate is 13.6 µM; in the assay with HOP-92 NSCLC it was 4.76 µM; in the assay with HS 578T breast, > 29.6 µM; in the assay with IGROV1 ovarian, 3.93 µM; in the assay with NCI/ADR-RES ovarian, 21.5 µM; in the assay on OVCAR-5 ovarian, 5.86 µM. The TGI in the assay with OVCAR-8 ovarian worked out at 7.55 µM; with SK-MEL-2 melanoma it was 3.99 µM; in the assay with SNB-19 CNS, 36.3 µM.
As to `O=C1c2ccccc2C(=O)N1CC#CCO`, the TGI in the assay with OVCAR-5 ovarian, in the assay on OVCAR-8 ovarian, in the assay on RXF 393 renal, with SK-MEL-2 melanoma and in the assay with SNB-19 CNS was > 100 µM throughout.
In the case of `O=C(CC12C3C4C1C1C2C3C41CC(=O)NO)NO` (stereo not given), the TGI with HOP-92 NSCLC is 97 µM; in the assay with OVCAR-5 ovarian, > 100 µM; in the assay on OVCAR-8 ovarian, > 100 µM; in the assay on SK-MEL-2 melanoma, > 100 µM; in the assay on SNB-19 CNS, > 100 µM.
Regarding `Cc1nnc(N/N=C/c2ccc([N+](=O)[O-])o2)[nH]c1=O`, the GI50 in the assay with DU-145 prostate is 2.1 µM; in the assay with HOP-92 NSCLC it was 0.228 µM; in the assay on HS 578T breast, 0.425 µM; in the assay with IGROV1 ovarian it was 3.82 µM; in the assay on NCI/ADR-RES ovarian it was 1.75 µM; with OVCAR-5 ovarian, 2.98 µM. Further, the GI50 in the assay on OVCAR-8 ovarian was 0.785 µM; in the assay with SK-MEL-2 melanoma, 3.14 µM; in the assay with SNB-19 CNS, 0.779 µM. Further, the TGI in the assay with DU-145 prostate was > 100 µM; with HOP-92 NSCLC, 1.76 µM; with HS 578T breast it was 40.8 µM; in the assay on IGROV1 ovarian, > 100 µM; in the assay with NCI/ADR-RES ovarian, > 100 µM; in the assay with OVCAR-5 ovarian it was > 100 µM. Besides, the TGI in the assay on OVCAR-8 ovarian is > 100 µM; in the assay on SK-MEL-2 melanoma it was > 48.8 µM; in the assay with SNB-19 CNS, > 100 µM.
In the case of `CSc1ccc(N2C(=O)C3c4[nH]c5ccccc5c4C4CCC(C(C)(C)C)CC4C3C2=O)cc1` (stereo not given), the TGI with HOP-92 NSCLC is 27.1 µM; with IGROV1 ovarian, 32 µM; with OVCAR-5 ovarian, > 100 µM; in the assay on OVCAR-8 ovarian, 27.8 µM; with RXF 393 renal, 47.1 µM; in the assay with SK-MEL-2 melanoma, 43.1 µM. The compound further came in with a TGI in the assay with SNB-19 CNS of 45.2 µM.
Consider `O=C1CCC2(O)c3ccccc3C2Cc2ccccc21` (stereo not given), for which the TGI in the assay on HOP-92 NSCLC, with IGROV1 ovarian, with OVCAR-8 ovarian, in the assay on RXF 393 renal, in the assay with SK-MEL-2 melanoma and with SNB-19 CNS was > 100 µM throughout.
Take `COc1ccc(C(C2=C(O)CC(C)OC2=O)C2=C(O)CC(C)OC2=O)cc1` (stereo not given): the TGI with IGROV1 ovarian, with OVCAR-5 ovarian, in the assay on OVCAR-8 ovarian, with SK-MEL-2 melanoma and in the assay on SNB-19 CNS was > 100 µM each time.
For `COc1ccc(N=NC2=C(O)CCC2=O)cc1`, the TGI with HOP-92 NSCLC, with IGROV1 ovarian, with OVCAR-5 ovarian, in the assay with OVCAR-8 ovarian, in the assay on RXF 393 renal and with SK-MEL-2 melanoma was > 100 µM each time. Besides, the TGI in the assay on SNB-19 CNS is > 100 µM.
In the case of `CC1(C)CC(=O)C(CC2C(=O)CCCC2=O)C(=O)C1`, the TGI with IGROV1 ovarian, in the assay with OVCAR-5 ovarian, with OVCAR-8 ovarian, with RXF 393 renal, in the assay on SK-MEL-2 melanoma and in the assay with SNB-19 CNS was > 100 µM throughout.
As for `CCO/C=C\C12CCCC1NC(c1ccccc1)(c1ccccc1)O2` (stereo not given), the TGI is 52.3 µM with HOP-92 NSCLC; 71.1 µM in the assay with IGROV1 ovarian; 37 µM with OVCAR-5 ovarian; > 100 µM with OVCAR-8 ovarian; 81.3 µM with RXF 393 renal; 45.7 µM with SK-MEL-2 melanoma. Besides, the TGI with SNB-19 CNS was > 100 µM.
In the case of `CCC(O)CCCCCCCCCCCCCCC(=O)O` (stereo not given), the TGI in the assay on HOP-92 NSCLC, in the assay with IGROV1 ovarian, in the assay with OVCAR-5 ovarian, with OVCAR-8 ovarian, with RXF 393 renal and in the assay on SK-MEL-2 melanoma was > 100 µM throughout. In addition, in the assay with SNB-19 CNS, the TGI was > 100 µM.
In the case of `O=C(Nc1ccc(Br)cc1)C(=O)C(C(=O)c1ccc(Cl)c(Cl)c1)C1OC(=O)c2ccccc21` (stereo not given), the TGI in the assay with HOP-92 NSCLC was found to be 58.4 µM; with IGROV1 ovarian it was 42.8 µM; in the assay on OVCAR-5 ovarian, 52.3 µM; in the assay on OVCAR-8 ovarian, 32.3 µM; in the assay with RXF 393 renal it was 17.9 µM; with SNB-19 CNS it was 97.8 µM.
On to `COc1cc(/C=C2\[C@@H]3NC(Cc4c(OC)c(C)c(OC)c(OC)c43)C(=O)N2Cc2ccccc2)c(OC)c(C)c1OC`, for which the TGI with HOP-92 NSCLC is 69.1 µM; in the assay with IGROV1 ovarian, > 100 µM; with OVCAR-5 ovarian it was > 100 µM; with OVCAR-8 ovarian, > 100 µM; in the assay with RXF 393 renal, 72.8 µM; with SK-MEL-2 melanoma, 36.3 µM. Further, the TGI in the assay with SNB-19 CNS is > 100 µM.
As for `O=C(NC1CCC[C@H]1OC(=O)c1ccccc1)c1ccccc1` (stereo not given in full), the TGI with HOP-92 NSCLC, in the assay on IGROV1 ovarian, in the assay on OVCAR-5 ovarian, with OVCAR-8 ovarian, with RXF 393 renal and in the assay with SK-MEL-2 melanoma was > 100 µM throughout. Moreover, the TGI with SNB-19 CNS was > 100 µM.
In the case of `Cc1cc(-c2ccccc2)nc(Nc2cc3ccccc3[nH]2)n1`, the TGI in the assay with HOP-92 NSCLC, with IGROV1 ovarian, with OVCAR-5 ovarian, in the assay with OVCAR-8 ovarian, with SK-MEL-2 melanoma and in the assay with SNB-19 CNS was > 100 µM throughout.
For the compound `Cc1cc(N(CCC#N)S(=O)(=O)c2ccccc2)ccc1C=Nc1ccc(C(=O)O)cc1`, the TGI in the assay with DU-145 prostate was > 100 µM; in the assay on HOP-92 NSCLC it was > 100 µM; in the assay on HS 578T breast it was > 100 µM; in the assay on IGROV1 ovarian, 46.5 µM; in the assay on OVCAR-5 ovarian it was 38.7 µM; in the assay with OVCAR-8 ovarian, 15.5 µM. Moreover, the TGI is 6.72 µM with RXF 393 renal, 22.3 µM with SK-MEL-2 melanoma and 44.8 µM with SNB-19 CNS.
`Nc1nc2cc(Cl)ccc2n1N`: the TGI with DU-145 prostate, in the assay with HS 578T breast, in the assay on IGROV1 ovarian, in the assay with OVCAR-5 ovarian, in the assay with OVCAR-8 ovarian and in the assay with RXF 393 renal was > 100 µM in each case. Moreover, in the assay with SNB-19 CNS, the TGI was > 100 µM.
`NC(=O)NNC/C(Cl)=C(\Cl)C(=O)O`: the TGI in the assay on IGROV1 ovarian, in the assay with OVCAR-5 ovarian, in the assay with OVCAR-8 ovarian, in the assay with RXF 393 renal, in the assay with SK-MEL-2 melanoma and with SNB-19 CNS was > 100 µM throughout.
`CCCCCCCCCC1CC(=O)OC2=C1C(=O)CCC2` (stereo not given): the TGI in the assay with HOP-92 NSCLC, in the assay on IGROV1 ovarian, in the assay with OVCAR-5 ovarian, in the assay with OVCAR-8 ovarian, in the assay with RXF 393 renal and in the assay on SK-MEL-2 melanoma was > 100 µM throughout. Moreover, the TGI in the assay on SNB-19 CNS is > 100 µM.
As for `CC(=O)C(CN1C(=O)c2ccccc2C1=O)C(C)=O`, the TGI with DU-145 prostate, with HOP-92 NSCLC, in the assay with HS 578T breast, with IGROV1 ovarian, in the assay with OVCAR-5 ovarian and with OVCAR-8 ovarian was > 100 µM each time. Also, the TGI in the assay on RXF 393 renal is 53.8 µM; in the assay with SK-MEL-2 melanoma, > 100 µM; in the assay on SNB-19 CNS, > 100 µM.
As to `C/C(=N\N=C(N)N)C(CN1CCOCC1)C(c1ccccc1)c1c(O)c2ccccc2oc1=O` (stereo not given), the TGI in the assay on HOP-92 NSCLC is 96.9 µM; in the assay on IGROV1 ovarian it was > 100 µM; in the assay with OVCAR-5 ovarian, > 100 µM; with OVCAR-8 ovarian, > 100 µM; in the assay on RXF 393 renal it was > 100 µM; in the assay on SK-MEL-2 melanoma it was > 100 µM. For the same compound, in the assay with SNB-19 CNS, the TGI is > 100 µM.
`O=C(Nc1ccc(Cl)c(Cl)c1)c1ccc(NC2=C(Cl)C(=O)N(Cc3ccccc3)C2=O)cc1`: the GI50 is 4.32 µM with DU-145 prostate; 5.37 µM in the assay on HS 578T breast; 2.71 µM in the assay with IGROV1 ovarian; 5.04 µM in the assay with NCI/ADR-RES ovarian; 2.95 µM with OVCAR-5 ovarian; 2.6 µM with OVCAR-8 ovarian. Besides, the GI50 is 10.1 µM in the assay with SK-MEL-2 melanoma and 52.9 µM with SNB-19 CNS. In addition, the TGI is 16.6 µM with DU-145 prostate; 27 µM in the assay with HS 578T breast; 8.14 µM with IGROV1 ovarian; 17 µM with NCI/ADR-RES ovarian; 8.91 µM in the assay with OVCAR-5 ovarian; 4.41 µM in the assay with OVCAR-8 ovarian. For the same compound, the TGI in the assay on SK-MEL-2 melanoma is 22.1 µM; with SNB-19 CNS, > 100 µM.
For the compound `C=CC1=C(C)C(/C=c2\[nH]/c(=C/c3[nH]c(CC4NC(=O)C(C)/C4=C\C)c(C)c3CCC(=O)O)c(CC(=O)O)c2C)=NC1=O` (stereo not given), the TGI in the assay on HOP-92 NSCLC, in the assay on IGROV1 ovarian, with OVCAR-5 ovarian, in the assay with OVCAR-8 ovarian, in the assay on RXF 393 renal and with SK-MEL-2 melanoma was > 100 µM in each case. Moreover, the TGI in the assay with SNB-19 CNS is > 100 µM.
For `CC1C(c2ccccc2)N(C)C(c2ccccc2)C(C)C1(O)c1ccccc1` (stereo not given), the TGI with HOP-92 NSCLC, in the assay with IGROV1 ovarian, in the assay with OVCAR-5 ovarian, in the assay with OVCAR-8 ovarian, in the assay on RXF 393 renal and in the assay on SK-MEL-2 melanoma was > 100 µM in each case. Besides, in the assay with SNB-19 CNS, the TGI is > 100 µM.
